Results on one compound are retold here after US20230339968A1, “KRAS Gl2C INHIBITORS” (Eli Lilly and Company, priority 2019, published 2023).

In this assay the test system is H1373 (lung) xenograft. Kind of assay: Anti-tumor growth activity, H1373 xenograft model. The class given is in vivo, mouse. Here is the method:
For xenograft models of H1373, HCC44, MiaPaca-2, SW1463, KYSE-410 and UM-UC-3, typically 5-10×10^6 cells in a 1:1 matrigel mix (0.2 mL total volume) are implanted by subcutaneous injection in hind leg of nude mice. […] Treatment is initiated with oral administration (gavage) of testing compound or vehicle (20% captisol, 25 mM phosphate, pH2.0) in 0.2 mL volume when tumor size reaches approximately 200-300 mg. Tumor growth and body weight are monitored over time to evaluate efficacy and signs of toxicity. For EL3187 PDX model, frozen vials containing tumor fragments are thawed at 37° C. in a water bath. The tumor fragments are transferred to 50 mL Falcon tube and the ice cold DMEM medium is slowly added into the tube to a total volume of 35 mL. Then the tumor fragments are centrifuged at 130×g for 2 minutes at 4° C. and supernatant is aspirated. This washing step is repeated twice and the tumor fragments are resuspended in 10 mL DMEM for implantation into athymic nude-Foxn1nu mice (Envigo RMS, Inc., Mount Comfort, Indiana). Once tumor volumes reach 800 to 1000 mm^3, animals are sacrificed and tumors are harvested using aseptic technique. Fresh tumors are cut into 10 to 15 mm^3 fragments and placed into cold Gibco hibernate medium. The tumor fragments are subcutaneously implanted into animals with a 10 g trochar needle. When tumor size reaches 200 to 300 mm^3, the animals are randomized for compound treatment.
Among models listed in Table 31, EL3187 is a patient-derived xenograft (PDX) model, and all other are tumor xenograft models.

With `C=CC(=O)N1CCN2C(=O)c3cc(F)c(-c4ccc(F)c5sc(N)c(C#N)c45)c(Cl)c3OCC[C@H]2C1` [Example 35, 4-[(13aS)-10-Chloro-8-fluoro-6-oxo-2-prop-2-enoyl-1,3,4,12,13,13a-hexahydropyrazino[2,1-d][1,5]benzoxazocin-9-yl]-2-amino-7-fluoro-benzothiophene-3-carbonitrile], the “tumor growth inhibition (%) or regression (−%)” value (from here on “tumor growth inhibition … (−%)”) (5 mg/kg BID × 28, oral) is reported as −26.3%; the “tumor growth inhibition … (−%)” value (10 mg/kg BID × 28, oral) was −49%; the “tumor growth inhibition … (−%)” value (10 mg/kg QD × 28, oral) is listed as −21.3%; the “tumor growth inhibition … (−%)” value (30 mg/kg QD × 28, oral) is listed as −49.7%.
